From PMC10747733, “N-Substituted 2-(Benzenosulfonyl)-1-Carbotioamide Derivatives Exert Antimicrobial and Cytotoxic Effects via Aldehyde Dehydrogenase Pathway: Synthesis, In Silico and In Vitro Studies” (Pharmaceuticals, 2023)
“And” between values parts separate entries of the source, which are not always exact repeats. Equal entries are not always repeated. “Also recorded” adds a separate entry of the source.

Experiments:
Type in all cases: cell-based, human
[1] = test system: 769-P (renal cell carcinoma); experiment: MTT antiproliferative activity assay; settings: for decrease in viability: 769-P; for TI after 24h / TI after 48h: IC50 WS1 / IC50 769-P
Experimental: (§1) Cancer cell lines originating from different organs, i.e., AGS (stomach—gastric adenocarcinoma), HepG2 (hepatocellular carcinoma), Du145, PC3 (prostate cancer), 769-P (renal cell carcinoma) and physiology cell line WS1 (fibroblasts), were purchased from ATCC. The cell cultures were carried out in an appropriate medium (DMEM or MEM) containing 10% heat-inactivated FBS with penicillin (100 U/mL) and streptomycin (100 U/mL). The cells were kept in a humidified incubator at 37 °C and 5% CO2 and passaged three times before experimenting.
(§2) The antiproliferative properties test for each cancer line was performed in 96-well plates, in which cells with a density of 2 × 10^4 were seeded in 100 µL of medium containing 10% FBS. After 24 h of allowing the cells to attach, the wells were washed with DPBS (Dulbecco’s phosphate-buffered saline) solution and the cells were incubated in fresh medium w/o FBS containing 1 µM, 10 µM, 50 µM, 200 µM or 500 µM of the tested compounds for 24 and 48 h. All substances were first dissolved in DMSO to prepare stock solutions that were then diluted in the medium to obtain a maximum of 0.1% w/v DMSO in the final solution. Each concentration was tested in triplicate. DMSO at a concentration of 0.1% in the medium was also used as a negative control. The antiproliferative activity of the compounds was tested using the MTT test. After each incubation time, the medium containing the test compounds and the negative control was removed, the cells were washed with DPBS solution, and then 100 µL of FBS-free and antibiotic-free fresh medium containing 0.5 mg/mL MTT was added to each well. The plates were incubated for 3 h in an incubator at 37 °C and 5% CO2. After incubation, the medium was removed, the cells were washed with 100 µL of PBS, and 100 µL of DMSO was added to each well to dissolve the purple formazan. The plate was shaken for 3 min and the absorbance was read at 570 nm (BioTek Synergy H1 microplate reader). Cell viability was calculated from the mean of the OD readings. Based on the dose–response curve, IC50 values were calculated (MS Excel). […] Therapeutic index (TI) results were calculated as the ratio of the IC50 of physiological cells to the IC50 of tumor cells.

[2] = test system: AGS (gastric adenocarcinoma); experiment: MTT antiproliferative activity assay; settings: for decrease in viability: AGS; for TI after 24h / TI after 48h: IC50 WS1 / IC50 AGS
Experimental: as §1, §2

Du145 (prostate cancer) = experiment: MTT antiproliferative activity assay; settings: for concentration at which a statistically significant decrease in viability was observed: tested 1–500 µM; for TI after 24h / TI after 48h: IC50 WS1 / IC50 DU145
Experimental: as §1, §2

[3] = test system: HepG2 (hepatocellular carcinoma); experiment: MTT antiproliferative activity assay; settings: for TI after 24h / TI after 48h: IC50 WS1 / IC50 HepG2
Experimental: as §1, §2

PC3 (prostate cancer) = experiment: MTT antiproliferative activity assay; settings: for TI after 24h / TI after 48h: IC50 WS1 / IC50 PC3
Experimental: as §1, §2

WS1 (fibroblasts) = experiment: MTT antiproliferative activity assay; settings: for concentration at which a statistically significant decrease in viability was observed: tested 1–500 µM
Experimental: as §1, §2

ALDH1A1 [4] = experiment: ALDH1A1 concentration by ELISA in 769-P cells
Experimental: (§3) The effect of compounds WZ1–WZ4 on ALDHA1 levels was investigated (Figure 10). The Du145, HepG2 and 769-P cell lines were treated with the calculated IC25 values for each compound.
(§4) Selected cell lines, viz HepG2, Du145 and 769-P, were seeded into 6-well plates and incubated for 24 h after seeding with compounds at a concentration equal to IC25. After a further 24 h or 48 h, cells were detached with trypsin and centrifuged. The resulting cell pellet was resuspended in 0.5 mL PBS. The samples were then sonicated, and protein was determined using the Bradford method (Bio-rad; Hercules, CA, USA). Samples were equilibrated to 10 mg/mL of protein, and ALDH1A1 was determined in the samples prepared in this way. ALDH1A1 determination was performed using an ELISA (SEE824Hu; Cloud Clone Corp., Katy, TX, USA), according to the manufacturer’s protocol.

ALDH1A1 [5] = experiment: ALDH1A1 concentration by ELISA in HepG2 cells; settings: compound at IC25, 48 h
Experimental: as §3, §4

Structure (SMILES) | decrease in viability ([1]; 24 h, 1 µM) | decrease in viability ([1]; 48 h, 1 µM) | TI after 24h ([1]; 24 h) | TI after 48h ([1]; 48 h) | decrease in viability ([2]; 24 h, 1 µM) | TI after 24h ([2]; 24 h) | TI after 48h ([2]; 48 h) | decrease in viability (Du145 (prostate cancer); Du145, 24 h, 1 µM) | concentration at which a statistically significant decrease in viability was observed (Du145 (prostate cancer); Du145, 48 h) [µM] | TI after 24h (Du145 (prostate cancer); 24 h) | TI after 48h (Du145 (prostate cancer); 48 h) | decrease in viability ([3]; HepG2, 24 h, 200 µM) | TI after 24h ([3]; 24 h) | TI after 48h ([3]; 48 h) | TI after 24h (PC3 (prostate cancer); 24 h) | TI after 48h (PC3 (prostate cancer); 48 h) | decrease in viability (PC3 (prostate cancer); PC3, 24 h, 50 µM) | concentration at which a statistically significant decrease in viability was observed (WS1 (fibroblasts); 24 h) | ALDH1A1 concentration compared to control (ALDH1A1 [4]; compound at IC25, 24 h) | decrease in viability ([2]; 48 h, 1 µM) | other results
O=S(=O)(NNC(=S)NC1CCCCC1)c1ccccc1 [WZ1, 2-(Benzenesulfonyl)-N-Cyclohexylhydrazine-1-Carbothioamide] | ~ 11% | ~ 15% | 22.712 | 7.757 | ~ 16% | 14.043 | 0.952 | ~ 7% | 200 | 16.001 | 0.170 | ~ 15% | 0.003 | 7.442 | 18.426 | 1.521 | ~ 11% | 200 µM | decrease | – | decrease in viability ([2]; 48 h, 50 µM): ~ 6%; decrease in viability ([3]; HepG2, 48 h, 10 µM): ~ 7%; concentration at which a statistically significant decrease in viability was observed (PC3 (prostate cancer); PC3, 48 h, tested 1–500 µM): 10 µM; concentration at which a statistically significant decrease in viability was observed (WS1 (fibroblasts); 48 h): 200 µM
CCCCCCNC(=S)NNS(=O)(=O)c1ccccc1 [WZ3, 2-(Benzenesulfonyl)-N-Hexylhydrazine-1-Carbothioamide] | ~ 22% | ~ 48% | 0.078 | 115.134 | ~ 9% | 1.169 | 1.284 | – | – | 0.476 | – | ~ 31% | 1.701 | 2.426 | 2.291 | – | – | 1 to 500 µM | increase | ~ 9% | decrease in viability ([1]; 24 h, 200 µM): ~ 22%; decrease in viability (Du145 (prostate cancer); Du145, 24 h, 200 µM): ~ 19%; decrease in viability (Du145 (prostate cancer); Du145, 48 h, 50 µM): ~ 6%; decrease in viability ([3]; HepG2, 48 h, 1 µM): ~ 7%; viability (reduced to) (PC3 (prostate cancer); PC3, 24 h, 50 µM): ~ 76%; decrease in viability (PC3 (prostate cancer); PC3, 48 h, 200 µM): ~ 11%; decrease in viability (WS1 (fibroblasts); 24 h, 1 µM): ~ 12%; decrease in viability (WS1 (fibroblasts); 48 h, 500 µM): ~ 64%; concentration at which a statistically significant decrease in viability was observed (WS1 (fibroblasts); 48 h): no significant change in viability
CNC(=S)NNS(=O)(=O)c1ccccc1 [WZ4, 2-(Benzenesulfonyl)-N-Methylhydrazine-1-Carbothioamide] | – | ~ 16% | 1.653 | 15.763 | ~ 7% | 4.537 | 7.390 | ~ 10% | 1 to 500 | – | 1.272 and > 1 | ~ 18% | – | – | 0.920 and < 1 | – | ~ 27% | 1 to 500 µM | decrease | ~ 12% | decrease in viability ([1]; 24 h, across 10–500 µM): 21–56%; decrease in viability ([1]; 48 h, across 1–500 µM): 16–82%; decrease in viability ([2]; 24 h, across 1–500 µM): 7–84%; decrease in viability ([2]; 48 h, across 1–500 µM): 12–92%; decrease in viability (Du145 (prostate cancer); DU145, 48 h, 1 µM): ~ 10%; concentration at which a statistically significant decrease in viability was observed (Du145 (prostate cancer); Du145, 24 h): 1 to 500 µM; decrease in viability ([3]; HepG2, 24 h, 1 µM): ~ 4%; decrease in viability ([3]; HepG2, 48 h, 1 µM): ~ 3%; viability (reduced to) ([3]; HepG2, 48 h, 50 µM): ~ 69%; decrease in viability (PC3 (prostate cancer); PC3, 48 h, 200 µM): ~ 32%; decrease in viability (WS1 (fibroblasts); 24 h, all concentrations tested (1–500 µM)): 10–52%; decrease in viability (WS1 (fibroblasts); 48 h, 200 µM): ~ 15%; ALDH1A1 concentration compared to control (ALDH1A1 [5]): increase; also recorded: increased levels; ALDH1A1 concentration compared to control (ALDH1A1 [4]; compound at IC25, 48 h): significant decrease
CCCCNC(=S)NNS(=O)(=O)c1ccccc1 [WZ2, 2-(Benzenesulfonyl)-N-Butylhydrazine-1-Carbothioamide] | ~ 8% | ~ 10% | 753,464,970.626 | 67,951.475 | ~ 8% | 1,905,977,431.260 | 0.368 | – | – | 2,352,384.152 | 28.982 | – | 205,540,220.291 | 15,880.957 | 289,230,463.397 | 224,184.286 | – | no reduction in viability | no significant changes | ~ 6% | viability at 50 µM (Du145 (prostate cancer); Homo sapiens, DU-145, Du145, 24 h, 50 µM, read-out: viability (dropped to)): ~80%; viability at 1 µM (Du145 (prostate cancer); Homo sapiens, DU-145, Du145, 48 h, 1 µM, read-out: viability (dropped to)): ~92%; decrease in viability ([3]; HepG2, 24 h, 500 µM): ~ 22%; viability (decreased to) ([3]; HepG2, 48 h, 1 µM): ~ 82%; viability (reduced to) (PC3 (prostate cancer); PC3, 24 h, 200 µM): ~ 82%; viability (reduced to) (PC3 (prostate cancer); PC3, 48 h, 50 µM): ~ 88%; decrease in viability (WS1 (fibroblasts); 48 h, 200 µM): ~ 17%; decrease in viability (WS1 (fibroblasts); 48 h, 500 µM): ~ 23%; ALDH1A1 concentration compared to control (ALDH1A1 [5]): increase; also recorded: increased levels; ALDH1A1 concentration compared to control (ALDH1A1 [4]; compound at IC25, 48 h): significant decrease
